Patent publication US6042841A, “Cosmetic method of treating skin” (Unilever Home & Personal Care USA Division of Conopco, Inc., priority 1998, dated 2000)

Legend:
[1] = test system: ICAM; assay: ICAM-1 assay, PMA-induced ICAM production in human skin fibroblasts; type: cell-based; settings: PMA (10 nM)-treated; N 4
Description: Intracellular adhesion molecules (ICAM) and PEG2 production by human skin fibroblasts can be induced by the inflammatory stimulus PMA (phorbal myristate acetate). PMA represents an external stressor which induces oxidative stress and inflammatory responses in cells. This model is used to model inflammation in vivo.
Primary human foreskin fibroblasts at passage 2 (P2) were seeded into 96-well plates at 10000 cells/well and maintained for 24 hours in an atmosphere of 5% carbon dioxide in Dulbeccos Modified Eagles Medium (DMEM) supplemented with 10% foetal calf serum. […] Phorbal myristate acetate (PMA) (Sigma) was added to the media and the cells incubated for a further 24 hours. […] The fibroblasts/media were then analysed as described below immediately or snap frozen in liquid nitrogen and stored at -70° C. for future analysis. The cells were then counted and data from the dot-blot analysis subsequently standardised to cell number.
ICAM-1 assay: Media were discarded and cells washed with Dulbecco PBS. To the washed cells, 150 μl 0.1% Triton X-100 (Sigma) was added for 3 minutes to extract ICAM from cell membrane. The extracts were transferred to Eppendoff centrifuge tubes and centrifuged at 1000 g for 2 min to remove cell debris. A volume of 100 μl supernatant was used for ICAM assay. The soluble ICAM-1 was assessed with commercially available immunoenzymometric assay kit (R&D Systems). Concentrations of ICAM-1 in the samples were determined based on parallelly running standard curve.

[2] = test system: decorin; assay: Dot blot assay for decorin synthesis in human dermal fibroblasts; type: cell-based; settings: Homo sapiens, Fibroblast, 24 h; 1 μm (so in the source); p=0.035, n=4; comparative trial; read-out: Decorin synthesis relative to vehicle treated control value of 100
Description: Primary human foreskin fibroblasts at passage 2 (P2) were seeded into 12-well plates at 10000 cells/cm^2 and maintained for 24 hours in an atmosphere of 5% carbon dioxide and 4% oxygen in Dulbeccos Modified Eagles Medium (DMEM) supplemented with 10% foetal calf serum. After this time the cells were washed with serum free DMEM and then incubated in fresh serum free DMEM for a further 60 hours. The fibroblast monolayers were then washed again with serum free DMEM. Test reagents and vehicle controls were added to the cells in triplicate in a final volume of 0.4 ml/well fresh serum free DMEM and incubated for a further 24 hours. This fibroblast conditioned medium was either analysed immediately or snap frozen in liquid nitrogen and stored at -70° C. for future analysis. The cells were then counted and data from the dot-blot analysis subsequently standardised to cell number.
Samples of conditioned medium from dermal fibroblasts treated with vehicle (as a control) or test reagents were supplemented with 20 mM dithiothreitol (1:10 dilution of 200 mM stock solution) and 0.1% sodium dodecylsulphate (1:100 dilution of 10% stock solution), mixed well and then incubated at 75° C. for 2 minutes. A standard for the assay was generated by serial dilution of neat fibroblast conditioned medium from fibroblasts seeded at 10000 cells/cm^2 in a 175 cm^2 flask and maintained in serum free DMEM as described above. Assay samples were subsequently applied in triplicate to a prewetted sheet of Immobilon-P transfer membrane using the 96-well Bio-Dot Apparatus from Bio-Rad as described in the manufacturers guidelines. Approximately 200 μl of medium was applied per well. […] Dot intensity was assessed by computer-assisted image analysis using the quantification tools in ImageQuant™, standardised to cell number and the effects of various test reagents on decorin and procollagen-I synthesis were determined relative to a vehicle treated control value of 100 arbitrary units.

[3] = test system: decorin; assay: Immunohistochemical analysis of decorin expression in photodamaged skin biopsies after topical retinoic acid; type: in vivo, human (women); settings: for No. of Participants showing marked increase in expression of decorin: 0.05% retinoic acid topical
Excerpt: (§1) Two groups of women were recruited with identical or nearly identical degrees of mild to moderate photodamage on each outer forearm. They were supplied with 0.05% retinoic acid in a moisturising base (Retinova®) and also with a colour matched moisturising cream with similar sensory characteristics (Dermacare® lotion), but no active ingredients, as a placebo control. Each participant of the two groups applied the Retinova® to one outer forearm and placebo (Dermacare®) to the other outer forearm. Group 1 applied the products daily to their outer forearms for 14 weeks and the Group 2 applied the products to their outer forearms for 28 weeks. At the end of the studies two full thickness 4 mm punch biopsies were taken from the treated areas of each forearm. Immunohistochemical analysis of the biopsy tissue taken from the participants was performed to identify the effect of retinoic acid treatment on the expression of the skin extracellular matrix components, decorin and procollagen-I, as compared with the placebo treated forearms. The following procedure was followed:
(§2) Antibody dilution buffer for wax sections was composed of Tris Buffered Saline (TBS), 3% bovine serum albumin (BSA), 0.05% Triton X-100 and 0.05% sodium azide. Primary antibodies for procollagen-I (amino terminal) were obtained from Chemicon International Inc. (cat# MAB 1912, rat IgGl) and used on wax sections at a dilution of 1:800, overnight at 4° C. after the section had been pre-treated with trypsin (0.5 mg/ml, 25 minutes, 37° C.). Primary antibodies for decorin were obtained from Biogenesis (rabbit polyclonal) and used on wax sections at a dilution of 1:800, overnight at 4° C. Anti-rat biotinylated secondary antibodies, obtained from DAKO (cat# E0468, rabbit polyclonal), were applied to wax sections at a dilution of 1:400. Anti-rabbit biotinylated secondary antibodies, obtained from Amersham (cat# RPN 1004, donkey polyclonal), were applied to wax sections at a dilution of 1:400. Streptavidin conjugated alkaline phosphatase, obtained from Zymed (cat# 43-4322), was used at a concentration of 1:2500. […]

[4] = test system: procollagen-I; assay: Immunohistochemical analysis of procollagen-I expression in photodamaged skin biopsies after topical retinoic acid; type: in vivo, human (women); settings: for No. of Participants showing marked increase in expression of procollagen-I: 0.05% retinoic acid topical
Excerpt: as §1, §2

[5] = test system: keratinocytes; assay: Keratinocyte SDS viability assay (Neutral Red); type: cell-based; settings: Keratinocyte; SDS 2 μg/ml, PA 0; 24 hours; n 8
Description: After incubating for 24 hours the medium was removed and the viability determined by the Neutral Red method.

[6] = Group 1 after 14 weeks, total 16 participants, daily
[7] = Group 2 after 28 weeks, total 15 participants
[8] = topical application of Retinova, vs placebo

## CCCCCCCCCCCCCC(=O)O[C@@H]1[C@@H](C)[C@@]2(O)[C@@H](C=C(CO)C[C@]3(O)C(=O)C(C)=C[C@@H]23)[C@@H]2C(C)(C)[C@]12OC(C)=O [PMA, phorbal myristate acetate, reference compound]
[1]
  ICAM: 14.42 ± 1.86 ng/mL

## CC1=C(/C=C/C(C)=C/C=C/C(C)=C/C(=O)O)C(C)(C)CCC1 [Retinoic Acid, retinoic acid]
[2]
  activity at 1 µM: 138 ± 14%
[3]; [6]
  No. of Participants showing marked increase in expression of decorin: 10
[3]; [7]
  No. of Participants showing marked increase in expression of decorin: 15
[3]; [8]
  decorin expression in photodamaged skin (in words): marked upregulation
[4]; [6]
  No. of Participants showing marked increase in expression of procollagen-I: 9
[4]; [7]
  No. of Participants showing marked increase in expression of procollagen-I: 10
[4]; [8]
  procollagen-I expression in photodamaged skin (in words): marked upregulation

## CCCCCCCCCCCCOS(=O)(=O)[O-].[Na+] [SDS, sodium dodecyl sulphate, reference compound]
[5]
  viability at 2 µg/mL: 55.8%
